Test results taken from patent publication US6504058B1 (priority 1997, dated 2003).

How the values were obtained:
Puccinia recondita = test: Test B: wheat leaf rust, preventive spray on wheat seedlings, disease rating; type: in vivo, Puccinia recondita (on wheat seedlings); conditions: 200 ppm test suspension sprayed to run-off (equivalent to 500 g/ha) on wheat seedlings; 100 = 100% disease control, 0 = no control; # = significant activity
From the text: (§1) Test compounds were first dissolved in acetone in an amount equal to 3% of the final volume and then suspended at a concentration of 200 ppm in purified water containing 250 ppm of the surfactant Trem® 014 (polyhydric alcohol esters). The resulting test suspensions were then used in the following test. Spraying these 200 ppm test suspensions to the point of run-off on the test plants is the equivalent of a rate of 500 g/ha.
(§2) The test suspension was sprayed to the point of run-off on wheat seedlings. The following day the seedlings were inoculated with a spore suspension of Puccinia recondita (the causal agent of wheat leaf rust) and incubated in a saturated atmosphere at 20° C. for 24 h, and then moved to a growth chamber at 20° C. for 6 days, after which disease ratings were made.
(§3) Results for Tests A-E are given in Table A. In the table, a rating of 100 indicates 100% disease control and a rating of 0 indicates no disease control (relative to the controls). A dash (-) indicates no test results. ND indicates disease control not determined due to phytotoxicity. # indicates significant activity.

[1] = tested on: Erysiphe graminis f. sp. tritici; test: Test A: wheat powdery mildew, preventive spray on wheat seedlings, disease rating; type: in vivo, Erysiphe graminis f. sp. tritici (on wheat seedlings); conditions: 200 ppm test suspension sprayed to run-off (equivalent to 500 g/ha) on wheat seedlings; 100 = 100% disease control, 0 = no control; # = significant activity
From the text: as §1
The test suspension was sprayed to the point of run-off on wheat seedlings. The following day the seedlings were inoculated with a spore dust of Erysiphe graminis f. sp. tritici, (the causal agent of wheat powdery mildew) and incubated in a growth chamber at 20° C. for 7 days, after which disease ratings were made.
as §3

Pyricularia oryzae = type: in vivo, Pyricularia oryzae (on rice seedlings); conditions: 200 ppm test suspension sprayed to run-off (equivalent to 500 g/ha) on rice seedlings; 100 = 100% disease control, 0 = no control; # = significant activity
Phytophthora infestans = type: in vivo, Phytophthora infestans (on tomato seedlings); conditions: 200 ppm test suspension sprayed to run-off (equivalent to 500 g/ha) on tomato seedlings; 100 = 100% disease control, 0 = no control; # = significant activity
Botrytis cinerea = test: Test E: gray mold, preventive spray on cucumber seedlings, disease rating; type: in vivo, Botrytis cinerea (on cucumber seedlings); conditions: 200 ppm test suspension sprayed to run-off (equivalent to 500 g/ha) on cucumber seedlings; 100 = 100% disease control, 0 = no control; # = significant activity
From the text: as §1
as §2, with “cucumber” for “wheat”, “Botrytis cinerea” for “Puccinia recondita”, “gray mold on many crops)” for “wheat leaf rust)”, “48” for “24”, “and” for “and then”, “5” for “6”
as §3

SMILES | Test B disease control rating (wheat leaf rust) (Puccinia recondita) | Test A disease control rating (wheat powdery mildew) [1] | Test C disease control rating (rice blast) (Pyricularia oryzae) | Test D disease control rating (potato and tomato late blight) (Phytophthora infestans) | Test E disease control rating (gray mold) (Botrytis cinerea)
CC(NC(=O)C1(C)CC(C)(Br)C1)c1ccc(Br)cc1 (stereo not shown) [compound 17] | 0 (a rating of 0 indicates no disease control (relative to the controls)) | 0 (a rating of 0 indicates no disease control (relative to the controls)) | 74% | 0 (a rating of 0 indicates no disease control (relative to the controls)) | 0 (a rating of 0 indicates no disease control (relative to the controls))
CC(COc1cc(F)ccc1Cl)NC(=O)C1(C)CC(C)(Cl)C1 (stereo not shown) [compound 50] | 0 (a rating of 0 indicates no disease control (relative to the controls)) | 54% | 94# % | 0 (a rating of 0 indicates no disease control (relative to the controls)) | 0 (a rating of 0 indicates no disease control (relative to the controls))
CC(COc1ccc(F)cc1C#N)NC(=O)C1(C)CC(C)(Cl)C1 (stereo not shown) [compound 40] | 0 (a rating of 0 indicates no disease control (relative to the controls)) | 0 (a rating of 0 indicates no disease control (relative to the controls)) | 0 (a rating of 0 indicates no disease control (relative to the controls)) | 62% | 0 (a rating of 0 indicates no disease control (relative to the controls))
CC(NC(=O)C1(C)CC(C)(Cl)C1)c1ccc(Br)cc1 (stereo not shown) [compound 13] | 0 (a rating of 0 indicates no disease control (relative to the controls)) | 0 (a rating of 0 indicates no disease control (relative to the controls)) | 94# % | 0 (a rating of 0 indicates no disease control (relative to the controls)) | 0 (a rating of 0 indicates no disease control (relative to the controls))
CC(NC(=O)C1(C)CC(C)(Br)C1)c1ccc(Cl)cc1Cl (stereo not shown) [compound 69] | 0 (a rating of 0 indicates no disease control (relative to the controls)) | 0 (a rating of 0 indicates no disease control (relative to the controls)) | 100# (a rating of 100 indicates 100% disease control) | 24% | 0 (a rating of 0 indicates no disease control (relative to the controls))
CC(COc1cc(Cl)ccc1C#N)NC(=O)C1(C)CC(C)(Cl)C1 (stereo not shown) [compound 45] | 0 (a rating of 0 indicates no disease control (relative to the controls)) | 0 (a rating of 0 indicates no disease control (relative to the controls)) | 99# % | 61% | 0 (a rating of 0 indicates no disease control (relative to the controls))
CC(NC(=O)C1CC(C)(Cl)C1)C(Oc1ccccc1C#N)c1ccccc1 (stereo not shown) [compound 35] | 0 (a rating of 0 indicates no disease control (relative to the controls)) | 0 (a rating of 0 indicates no disease control (relative to the controls)) | 86# % | 0 (a rating of 0 indicates no disease control (relative to the controls)) | 0 (a rating of 0 indicates no disease control (relative to the controls))
CC(NC(=O)C1(Cl)CC(Cl)(Cl)C1)c1ccc(Br)cc1 (stereo not shown) [compound 12] | 0 (a rating of 0 indicates no disease control (relative to the controls)) | 99% | 100# (a rating of 100 indicates 100% disease control) | 11% | 0 (a rating of 0 indicates no disease control (relative to the controls))
CC(COc1cc(F)ccc1Cl)NC(=O)C1(C)CC(C)(Br)C1 (stereo not shown) [compound 55] | 0 (a rating of 0 indicates no disease control (relative to the controls)) | 83# % | 74% | 0 (a rating of 0 indicates no disease control (relative to the controls)) | 0 (a rating of 0 indicates no disease control (relative to the controls))
CC(COc1ccc(Cl)cc1C#N)NC(=O)C1(C)CC(C)(Cl)C1 (stereo not shown) [compound 42] | 0 (a rating of 0 indicates no disease control (relative to the controls)) | 63% | 0 (a rating of 0 indicates no disease control (relative to the controls)) | 43% | 19%
CC(COc1cc(F)ccc1F)NC(=O)C1(C)CC(C)(Cl)C1 (stereo not shown) [Compound 30] | 0 (a rating of 0 indicates no disease control (relative to the controls)) | 0 (a rating of 0 indicates no disease control (relative to the controls)) | 100# (a rating of 100 indicates 100% disease control) | 0 (a rating of 0 indicates no disease control (relative to the controls)) | 94# %
CC(NC(=O)C1(C)CC(C)(Cl)C1)c1ccc(Cl)cc1Cl (stereo not shown) [compound 72] | 0 (a rating of 0 indicates no disease control (relative to the controls)) | 91# % | 99# % | 66% | 0 (a rating of 0 indicates no disease control (relative to the controls))
CC(NC(=O)C1(C)CC(Cl)(CCl)C1)c1ccc(Br)cc1 (stereo not shown) [compound 61] | 0 (a rating of 0 indicates no disease control (relative to the controls)) | 0 (a rating of 0 indicates no disease control (relative to the controls)) | 100# (a rating of 100 indicates 100% disease control) | 96# % | 0 (a rating of 0 indicates no disease control (relative to the controls))
CC(NC(=O)C1(C)CC(F)(F)C1)c1ccc(Br)cc1 (stereo not shown) [compound 67] | 0 (a rating of 0 indicates no disease control (relative to the controls)) | 63% | 99# % | 43% | 19%
